# Assay results published in patent US20050020544A1, “Bicyclic CB2 cannabinoid receptor ligands” (priority 2002, published 2005).
# pIC50: −log10 of the molar value.
# Assays:
# Male Sprague Dawley rats = experiment: Inflammatory pain: carrageenan paw edema in rats, thermal and mechanical stimuli; format: in vivo, rat; conditions: 5 mg/kg, three hours
# Protocol: Male Sprague Dawley rats (200 g average body weight, Harlan, Israel) are transiently sedated by placement on dry ice for the duration of the injections. […] Before induction of inflammatory pain and three hours after injection, the animals reactions to pain stimuli were tested in two systems. The first stimulus was thermal and assessed by the Plantar Test according to Hargreaves, using Ugo Basile Model 7370. The scale was set to an intensity of 50 arbitrary units. The latency time till the animal lift a paw as a reaction to the thermal stimulus was recorded for both the inflamed and non-inflamed hind paws. The second stimulus was mechanical (tactile) and assessed using a Dynamic Plantar Sesthesiomether (Ugo Basile Model 73400-002).
# The results are measured as the differences between the two hind paws at time 0 and 3 hours both as ALT, for the latency time in the thermal part of the study, and as ΔForce, for the mechanical part of the study.
# male Sprague-Dawley rats = experiment: Chronic constriction nerve injury, neuropathic pain (Von Frey filaments); format: in vivo, rat; conditions: 4 mg/kg i.p., 15 minutes
# Excerpt: The aim of this study was to assess the potential analgesic effects of the novel bicyclic CB2 binding compounds in an animal model of neuropathic pain. A peripheral monopathy was induced in the right hind limb of rats following a chronic constriction of the sciatic nerve (Bennet, G. J. & Xie, Y-K., Pain 33: 87-107, 1988). The development of mechanical allodyna was monitored using an established behavioral test (Von Frey filaments).
# Pre-surgery baseline values were ascertained as the mean of 2 pre-surgery values. Once the baseline values had been established, the animals were surgically prepared by constricting the right sciatic nerve with 4 chromic cat gut loose ligatures.
# The design was randomized, performed in a masked fashion as to whether drug or vehicle is being given. The animals, male Sprague-Dawley rats (average body weight 240-290 g), were allowed to acclimatize to the behavioral testing equipment prior to testing. On the testing day, the animals, at least six per treatment group, were given i.p. a single dose of one of the test compounds in a volume of 2.5 ml/kg. Fifteen minutes later, a series of Von Frey filaments (pre-calibrated prior to testing) were applied to the plantar surface of the hind paw, from below. The filaments were applied in ascending order starting with the weakest force and the withdrawal threshold for both the ipsilateral and contralateral hind paws was evaluated. Each filament was indented on the mid-plantar surface of the foot to the point where it just starts to bend; this is repeated approximately 8-10 times per filament at a frequency of approximately 1 Hz. The withdrawal threshold is defined as being the lowest force of two or more consecutive Von Frey's filaments to elicit a reflex withdrawal response (i.e. a brief paw flick) and is measured in grams.
# The results are expressed as % increase in the threshold of response to Von Frey's filaments in the test compound treated group versus the vehicle treated animals and per definition the vehicle treated group yields a null baseline value. The black column represents the morphine treated animals (4 mg/kg), the gray and the dotted column bars represent two doses of compound A (0.5 and 1 mg/kg respectively).
# ICR male mice [1] = experiment: Development of tolerance on repeated administration, tail flick model; conditions: 5 mg/kg twice daily i.p.
# Protocol: (§1) ICR male mice (20-30 g average body weight, Harlan, Israel) were injected i.p. at the volume dose of 5 ml/kg. Each treatment group contained at least 6 animals. Morphine HCl was used as positive control at the final dose of 5 mg/kg. Its vehicle, saline, was also included as control. The test compounds were dissolved in CREMOPHOR EL®:ethanol and diluted 1:20 in saline prior to injection, this second type of vehicle was also included as negative control. The final dose injected varied from 0.1 to 10 mg/kg. At predetermined time points after treatment injection, the animals were placed in the tail flick system (Socrel, model DS 20). Animals were gently held while their tails were located above the photoelectric cell. The tails were then illuminated (21V) at 2 cm from the distal tip and the latency time, measured in seconds, was recorded in duplicates. At the end of the study, the animals were euthanized by i.p. injection of 100 mg/kg sodium pentobarbitone.
# Tolerance was assessed in the tail flick model above described. Briefly, the test compounds were administered twice daily i.p. for up to 10 days to groups of 10 animals each. The noxious pain threshold was measured as previously described in example 13 thirty minutes after the first drug administration on days 1, 4, 8 and 10. Results are expressed as mean latency time till the animal flicked its tail±SE. The differences between the latency times or the % of animals showing analgesia among various treatment groups was analyzed by analysis of variance (ANOVA) followed by post-hoc Tukey's test (for latency) or Fisher's exact test (for % animals). A value of p<0.05 is considered to be statistically significant.
# ICR male mice [2] = experiment: Tail flick model for acute peripheral pain, i.p.; format: in vivo, mouse; conditions: 5 mg/kg i.p.
# Protocol: as §1
# Two parameters were used to analyze the results, the latency time and the % of animals showing analgesia. […] The results in both cases are expressed as mean±SE. The differences between the latency times or the % of animals showing analgesia among various treatment groups was analyzed by analysis of variance (ANOVA) followed by post-hoc Tukey's test (for latency) or Fisher's exact test (for % animals). A value of p<0.05 is considered to be statistically significant.
# human CB1 receptor [3] = molecular target: T1, human CB1 receptor (Homo sapiens, UniProt P21554); experiment: Adenylylcyclase assay: forskolin-activated cAMP in CB1 transfected HEK-293 cells; format: cell-based
# T1 construct: purchased Perkin Elmer/NEN; host or cells: HEK-293 cells, stably transfected (membranes)
# Protocol: (§2) Cannabinoids and derivatives bind to G-protein-coupled CB1 and CB2 receptors and exert their activity via the inhibition of adenylylcyclase activity. An adenylylcyclase assay forms a basis for the functional analysis of the compounds by determining their capacity to inhibit or promote forskolin-activated cAMP production. The assay is carried out according to Chin et al. (Chin, C. N. et al., J. Neurochem. 70: 366-73, 1998). Briefly, HEK-293 human kidney cells (ATCC#CRL-1573) stably transfected with either the human CB1 or CB2 receptor (cDNA) were grown in DMEM supplemented with 10% fetal calf serum, 1% Penicillin-Streptomycin and 2 mM L-glutamine. Cells were seeded in 24 wells plate at 5×10^4 cells/well and incubated for 48 hours. Medium was then removed and the adherent cells were washed with PBS. Two hundred μl of serum free medium supplemented with 0.2 mM Ro 20-1724, 0.25% BSA, and 20 mM HEPES was then added to each well. The cells were then activated with 1 μM forskolin in presence of the bicyclic test compounds in concentrations ranging from 10 pM up to 1 μM. The activated cells were then incubated at 37° C. for 20 minutes and the reaction terminated with 1.2 M HCl to a final concentration of 0.1 M. Cells were lyzed by freeze and thaw and the lysate was neutralized with 2 M HEPES, pH 7.5. cAMP was measured in 50 μl aliquots using the [^3H]-cAMP assay system (Amersham).
# (§3) This experiment was first performed on CB2 receptor transfected cells.
# human CB1 receptor [4] = molecular target: T1, human CB1 receptor; experiment: biochemical; format: binding; conditions: CB1 IC50
# Method in brief: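 Displacement of [3H]CP55940 from membranes of HEK-293 cells stably expressing human CB1, in 50 mM Tris-HCl, 2.5 mM EDTA, 5 mM MgCl2, 1 mg/ml BSA, pH 7.4, 0.1% DMSO; 1.5 h at 30° C, then filtration.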
# human CB2 receptor = human CB2 receptor (Homo sapiens, UniProt P34972); experiment: Adenylylcyclase assay: forskolin-activated cAMP in CB2 transfected HEK-293 cells; format: cell-based; conditions: HEK293, read-out: % inhibition at 1 μM; CB2 receptor transfected HEK-293, 1 μM forskolin
# Protocol: as §2, §3
# T1 sequence (P21554 whole entry): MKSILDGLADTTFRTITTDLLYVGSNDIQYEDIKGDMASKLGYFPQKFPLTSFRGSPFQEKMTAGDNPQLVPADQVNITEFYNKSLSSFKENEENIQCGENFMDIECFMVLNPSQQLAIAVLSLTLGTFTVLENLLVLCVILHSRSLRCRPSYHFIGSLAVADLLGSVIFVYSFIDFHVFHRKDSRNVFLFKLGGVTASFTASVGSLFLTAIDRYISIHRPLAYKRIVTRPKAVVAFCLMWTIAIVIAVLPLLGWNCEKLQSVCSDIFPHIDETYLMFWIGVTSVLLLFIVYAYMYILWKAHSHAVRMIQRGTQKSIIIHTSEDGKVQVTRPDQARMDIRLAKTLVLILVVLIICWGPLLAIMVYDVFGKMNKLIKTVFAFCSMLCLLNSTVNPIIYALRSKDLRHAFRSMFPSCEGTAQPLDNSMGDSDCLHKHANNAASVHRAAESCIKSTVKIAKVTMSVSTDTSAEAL
# human CB2 receptor, sequence (P34972 whole entry): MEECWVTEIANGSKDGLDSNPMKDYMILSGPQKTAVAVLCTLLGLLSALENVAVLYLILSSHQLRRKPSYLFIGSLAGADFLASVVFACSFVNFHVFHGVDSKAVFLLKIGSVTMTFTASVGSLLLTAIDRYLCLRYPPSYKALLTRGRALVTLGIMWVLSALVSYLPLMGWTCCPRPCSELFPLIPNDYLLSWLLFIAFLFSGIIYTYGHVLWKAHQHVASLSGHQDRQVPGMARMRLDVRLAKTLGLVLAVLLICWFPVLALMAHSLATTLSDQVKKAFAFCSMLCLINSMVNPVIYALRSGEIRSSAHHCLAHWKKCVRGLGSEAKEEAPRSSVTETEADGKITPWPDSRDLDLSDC
smiles,measurement,setting,value
"CN1CC[C@]23c4c5ccc(O)c4O[C@H]2[C@@H](O)C=C[C@H]3[C@H]1C5 [Morphine, reference compound]",ΔForce (tactile stimulus),Male Sprague Dawley rats,2.7 grams
same,ΔLT (thermal stimulus),Male Sprague Dawley rats,0 s
same,"increase in pain threshold (Von Frey) versus vehicle, ipsilateral hind paw",male Sprague-Dawley rats,91%
same,% of animals showing increased analgesia,ICR male mice [1]; day 10,30%
same,latency time,ICR male mice [1]; day 10,5.8 s
same,% of animals showing increased analgesia,ICR male mice [1]; day one,80%
same,latency time,ICR male mice [1]; day one,7.5 s
same,latency time,ICR male mice [2]; 30 minutes,7.5 s
same,% animals showing analgesia,ICR male mice [2]; 90 minutes,about 40%
same,latency time,ICR male mice [2]; 90 minutes,3.9 s
same,latency time,ICR male mice [2]; five and a half hour,3.6 s
same,% animals showing increased analgesia,ICR male mice [2]; five and an half hours,17%
same,% animals showing increased analgesia,ICR male mice [2]; half-an hour,88%
same,latency time,ICR male mice [2]; two and a half hour,3.1 s
"CCCCCCC(C)(C)c1cc(O)c2c(c1)OC(C)(C)[C@@H]1CC=C(CO)C[C@@H]21 [HU-210, 7-hydroxy-Δ^6-tetrahydrocannabinol-1,1-dimethyl-heptyl, reference compound]",pIC50,human CB1 receptor [3],9.46
same,inhibition at 1 µM,"human CB1 receptor [3]; HEK293, CB1 transfected HEK-293, 1 μM forskolin, read-out: maximal inhibition at 1 μM",73%
same,pIC50,human CB1 receptor [4],9.41
same,inhibition at 1 µM,human CB2 receptor,50%
